According to patent US20250197368A1 (priority 2020, published 2025):
Where two headings read alike, the source gives them in different places.

Experiments:
[1] = tested on: human α2β3γ2 GABAARs; test: In vitro electrophysiological recording assay (automated patch-clamp), α2-GABAAR relative efficacy; format: cell-based; settings: % efficacy normalised to diazepam; GABA EC10-20; concentration generally >= 100 times Ki
Protocol: The efficacy of modulators was evaluated using the automated patch-clamp platforms QPatch16 (Sophion, Copenhagen, Denmark) or SyncroPatch 384PE (Nanion, Germany).
For QPatch electrophysiology testing L(tk^−) cells stably expressing human α1β3γ2, α2β3γ2, α3β3γ2, α5β3γ2 GABAARs were used. HEK293 cells stably expressing human α1β3γ2L, α2β3γ2L, α3β3γ2L and α5β3γ2L GABAARs were used for the SyncroPatch 384PE experiments.
All experiments were carried out at room temperature (20-22° C.) using a standard whole cell procedure and physiological solutions. Gigaseals were formed upon execution of a combined suction/voltage protocol with subsequent increased suction leading to the whole-cell configuration.
The currents recorded were acquired at either 1 KHz or 2 KHz and filtered using a Bessel filter. Whole-cell currents were measured at a holding potential of-65 mV (QPatch) or −80 mV (SyncroPatch).
For QPatch experiments, the extracellular solution contained of: 145 mM NaCl, 4 mM KCl, 1 mM MgCl2, 2 mM CaCl2), 10 mM HEPES, 10 mM D-glucose (pH 7.4), and the intracellular solution consisted of: 96 mM KCl, 28 mM CsCl, 25 mM KOH, 4.3 mM CaCl2), 1.4 mM MgCl2, 10 mM EGTA, 10 mM HEPES, 3 mM MgATP (pH 7.2). The osmolarities of the extracellular and intracellular solutions were 305 and 295 mOsm respectively.
For SyncroPatch experiments, the extracellular recording solution contained: 140 mM NaCl, 4 mM KCl, 2 mM CaCl2), 1 mM MgCl2, 10 mM HEPES, 5 mM glucose (pH 7.4 with NaOH and osmolarity of c. 300-310 mOsm). The intracellular recording solution consisted of: 90 mM KCl, 50 mM KF, 1.5 mM MgCl2, 11.1 mM EGTA and 10 mM HEPES (pH 7.2 with KOH and osmolarity of c. 300 mOsm). 2 mM of NaATP was added to the intracellular solution on the day of testing.
The effects of modulators were evaluated in the presence of a submaximal GABA concentration, giving typically less than 30% activation of the response elicited by a saturating GABA concentration. To check and ensure baseline current stability before compound addition, two to five consecutive applications of GABA EC10-20 separated by wash steps were performed before compound addition. The test compound was applied 1 min at least prior to co-application with GABA EC10-20. Following a further wash step, a saturating concentration of GABA was applied at the end of each recording, allowing the accurate evaluation for each cell of the percentage baseline activation elicited by the submaximal GABA applied.
The compounds were first dissolved in DMSO as a 10 mM stock and then further diluted to the testing concentrations so that the final DMSO concentration in the extracellular recording solution was 0.1% (QPatch) or 0.2% (SyncroPatch).
The % efficacy of modulators was determined from the GABA elicited currents recorded in the presence and absence of the test compound, using the formula:
[((compound peak current−leak)−(GABA peak current-leak))/(GABA peak current−leak)]*100,
where ‘leak’ is the leak baseline current at the holding potential, ‘compound peak current’ is the current elicited by co-application of compound and GABA, and ‘GABA peak current’ is the current elicited by GABA alone at the last GABA application before compound addition. The results were presented as ‘relative efficacy’ for each compound generally at a concentration equal or higher than 100 times their determined Ki. The relative efficacy of a compound was calculated by normalising its % efficacy to the corresponding % efficacy of diazepam that was separately determined.

[2] = biological target: human α2β3γ2 GABAARs (benzodiazepine site) (Homo sapiens (Human), UniProt P18507+P47869); test: In vitro radioligand binding assay ([3H]Ro15-1788 displacement), α2-GABAAR Ki
Protocol: The affinity (Ki) of compounds for the benzodiazepine site of human recombinant GABAARs was measured by their ability to inhibit the binding of the selective benzodiazepine antagonist [^3H]Ro15-1788 ([^3H] flumazenil).
Mouse L(tk^−) cells stably expressing human α1β3γ2, α2β3γ2, α3β3γ2, α5β3γ2 GABAARs were generated by transfection of the individual subunits in the dexamethasone-inducible expression vector pMSGneo in mouse L(tk^−) cells (Hadingham et al., 1993, Mol. Pharmacol. 43:970-975 and 1993, Mol. Pharmacol. 44:1211-1218).
L(tk^−) cells stably expressing human α1β3γ2, α2β3γ2, α3β3γ2, α5β3γ2 GABAARs were maintained in DMEM F12 medium supplemented with 10% Foetal Bovine Serum, 1% Penicillin/Streptomycin and 1 mg/mL Geneticin G418 in an incubator at 37° C. with a humidified atmosphere with 5% CO2. Dexamethasone was added to the culture medium to induce GABAAR expression.
L(tk−) cells were harvested and membranes were prepared for each receptor combination in either TE buffer (10 mM Tris·CI/0.1 mM EDTA, pH 7.5) or phosphate buffer (K2PO4 10 mM, pH 7.0) (Hadingham et al. (1992) Proc. Natl. Acad. Sci. USA; 89 (14): 6378-82). Protein concentration, receptor expression and the Kd of [^3H]Ro15-1788 were determined before Ki value of the compounds were evaluated. For Kd evaluation, saturation binding curves were obtained by incubating membrane with various concentrations of [^3H]Ro15-1788 (82.5 Ci/mM), with nonspecific binding measured in the presence of 1-3 μM TP003.
For Ki evaluation, cell membranes were incubated with 4 nM [^3H]Ro15-1788 along with a range of concentrations of test compound. Nonspecific binding was determined using 1-3 μM TP003. All incubations were performed for 1 hour at 4° C. in assay buffer. The total assay volume was 0.5 mL, containing 40 μg/well α1β3γ2, 30 μg/well α2β3γ2, 40 μg/well α3β3γ2 and 30 μg/well for α5β3γ2 of membrane protein. Incubations were terminated by filtration and washing with ice cold Tris-HCl buffer (50 mM, pH=7.4) over Whatman GF/B filters and the radioactivity of the filters was measured using liquid scintillation counting.
The % inhibition of [^3H]Ro15-1788 binding was plotted as a function of compound concentration and the IC50 calculated. From the IC50, the affinity (Ki) was calculated using the method of Cheng and Prusoff using the Kd values obtained for [^3H]Ro15-1788.

[3] = L(tk-) cell membranes, 4 nM [3H]Ro15-1788, read-out: α2-GABAAR Ki

Chain of human α2β3γ2 GABAARs (benzodiazepine site) (P47869 29-451): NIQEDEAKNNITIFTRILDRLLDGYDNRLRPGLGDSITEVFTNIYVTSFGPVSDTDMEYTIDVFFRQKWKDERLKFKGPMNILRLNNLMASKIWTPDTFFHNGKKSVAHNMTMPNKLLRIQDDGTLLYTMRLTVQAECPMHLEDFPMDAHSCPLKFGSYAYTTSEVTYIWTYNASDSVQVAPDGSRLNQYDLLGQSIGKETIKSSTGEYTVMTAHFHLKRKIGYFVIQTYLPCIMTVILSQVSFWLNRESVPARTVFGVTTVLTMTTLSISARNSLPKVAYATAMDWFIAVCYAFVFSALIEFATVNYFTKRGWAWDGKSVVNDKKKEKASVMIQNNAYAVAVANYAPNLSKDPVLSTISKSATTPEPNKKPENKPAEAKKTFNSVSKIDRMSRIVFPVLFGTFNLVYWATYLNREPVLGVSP
Chain of human α2β3γ2 GABAARs (benzodiazepine site) (P28472 26-473 partner): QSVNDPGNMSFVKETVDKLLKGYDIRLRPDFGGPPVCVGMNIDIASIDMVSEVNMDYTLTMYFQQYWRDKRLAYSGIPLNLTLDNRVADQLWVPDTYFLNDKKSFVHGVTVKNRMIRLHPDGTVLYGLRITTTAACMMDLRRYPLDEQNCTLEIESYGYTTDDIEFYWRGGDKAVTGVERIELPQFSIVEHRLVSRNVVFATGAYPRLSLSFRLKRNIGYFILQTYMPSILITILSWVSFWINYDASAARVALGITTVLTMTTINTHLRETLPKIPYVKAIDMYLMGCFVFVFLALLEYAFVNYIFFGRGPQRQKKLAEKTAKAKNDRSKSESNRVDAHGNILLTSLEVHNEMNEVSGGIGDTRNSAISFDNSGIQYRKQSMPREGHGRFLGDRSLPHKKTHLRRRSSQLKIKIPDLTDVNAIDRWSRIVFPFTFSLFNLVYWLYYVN
Chain of human α2β3γ2 GABAARs (benzodiazepine site) (P18507 40-475): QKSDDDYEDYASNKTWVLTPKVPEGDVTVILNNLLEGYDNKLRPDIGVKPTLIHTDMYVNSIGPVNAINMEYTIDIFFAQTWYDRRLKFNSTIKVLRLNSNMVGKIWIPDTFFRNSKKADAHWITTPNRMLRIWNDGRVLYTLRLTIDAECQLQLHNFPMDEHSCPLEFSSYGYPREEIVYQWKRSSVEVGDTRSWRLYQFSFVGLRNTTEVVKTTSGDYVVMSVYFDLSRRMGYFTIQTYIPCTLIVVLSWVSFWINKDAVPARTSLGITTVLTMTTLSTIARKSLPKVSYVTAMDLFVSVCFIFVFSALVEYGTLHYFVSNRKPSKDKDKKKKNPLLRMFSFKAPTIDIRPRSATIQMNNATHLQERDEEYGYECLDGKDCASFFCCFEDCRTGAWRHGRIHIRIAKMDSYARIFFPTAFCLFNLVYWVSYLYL

CCCNC(=O)c1c(N)c2cccc(-c3cccc(OC(F)(F)F)n3)c2[nH]c1=O [Example 1, 4-Amino-2-oxo-N-propyl-8-[6-(trifluoromethoxy)-2-pyridyl]-1H-quinoline-3-carboxamide]
α2-GABAAR Relative Efficacy (vs. Diazepam) [1]: 0.13
Ki [2]: 0.79 nM

CCCNC(=O)c1c(N)c2cccc(-c3cccc(C(F)F)n3)c2[nH]c1=O [Example 3, 4-Amino-8-[6-(difluoromethyl)-2-pyridyl]-2-oxo-N-propyl-1H-quinoline-3-carboxamide]
α2-GABAAR Relative Efficacy (vs. Diazepam) [1]: 0.29
Ki [2]: 1.99 nM

CCCNC(=O)c1c(N)c2cccc(-c3ncc(F)cc3F)c2[nH]c1=O [Example 6, 4-Amino-8-(3,5-difluoro-2-pyridyl)-2-oxo-N-propyl-1H-quinoline-3-carboxamide]
α2-GABAAR Relative Efficacy (vs. Diazepam) [1]: 0.10
Ki [2]: 0.87 nM

CCCNC(=O)c1c(N)c2cccc(-c3nc(OCC)ccc3F)c2[nH]c1=O [Example 9, 4-Amino-8-(6-ethoxy-3-fluoropyridin-2-yl)-2-oxo-N-propyl-1,2-dihydroquinoline-3-carboxamide]
α2-GABAAR Relative Efficacy (vs. Diazepam) [1]: 0.23
Ki [2]: 0.25 nM

CCCNC(=O)c1c(N)c2cccc(-c3nc(COC)ccc3F)c2[nH]c1=O [Example 10, 4-Amino-8-(3-fluoro-6-(methoxymethyl)pyridin-2-yl)-2-oxo-N-propyl-1,2-dihydroquinoline-3-carboxamide]
α2-GABAAR Relative Efficacy (vs. Diazepam) [1]: 0.22
Ki [2]: 1.5 nM

CCCNC(=O)c1c(N)c2cccc(-c3nc(CO)ccc3C)c2[nH]c1=O [Example 12, 4-Amino-8-(6-(hydroxymethyl)-3-methylpyridin-2-yl)-2-oxo-N-propyl-1,2-dihydroquinoline-3-carboxamide]
α2-GABAAR Relative Efficacy (vs. Diazepam) [1]: 0.38
Ki [2]: 8.17 nM

CCCNC(=O)c1c(N)c2cccc(-c3cnccc3C)c2[nH]c1=O [Example 15, 4-Amino-8-(4-methylpyridin-3-yl)-2-oxo-N-propyl-1,2-dihydroquinoline-3-carboxamide]
α2-GABAAR Relative Efficacy (vs. Diazepam) [1]: 0.17
Ki [2]: 4.09 nM

CCCNC(=O)c1c(N)c2cccc(-c3cnccc3F)c2[nH]c1=O [Example 16, 4-Amino-8-(4-fluoropyridin-3-yl)-2-oxo-N-propyl-1,2-dihydroquinoline-3-carboxamide]
α2-GABAAR Relative Efficacy (vs. Diazepam) [1]: 0.34
Ki [2]: 24.1 nM

CNC(=O)c1c(N)c2cccc(-c3cnccc3OC)c2[nH]c1=O [Example 55, 4-Amino-8-(4-methoxy-3-pyridyl)-N-methyl-2-oxo-1H-quinoline-3-carboxamide]
Ki [2, 3]: 159 nM

COc1ccncc1-c1cccc2c(N)c(C(=O)NC3CC3)c(=O)[nH]c12 [Example 57, 4-Amino-N-cyclopropyl-8-(4-methoxy-3-pyridyl)-2-oxo-1H-quinoline-3-carboxamide]
Ki [2]: 73.3 nM

COc1ccncc1-c1cccc2c(N)c(C(=O)NC3COC3)c(=O)[nH]c12 [Example 58, 4-Amino-8-(4-methoxy-3-pyridyl)-N-(oxetan-3-yl)-2-oxo-1H-quinoline-3-carboxamide]
Ki [2, 3]: 154 nM

COc1ccncc1-c1cccc2c(N)c(C(=O)NCC(F)F)c(=O)[nH]c12 [Example 61, 4-Amino-N-(2,2-difluoroethyl)-8-(4-methoxy-3-pyridyl)-2-oxo-1H-quinoline-3-carboxamide]
Ki [2, 3]: 107 nM

COc1ccncc1-c1cccc2c(N)c(C(=O)NCC(C)(F)F)c(=O)[nH]c12 [Example 65, 4-Amino-N-(2,2-difluoropropyl)-8-(4-methoxy-3-pyridyl)-2-oxo-1H-quinoline-3-carboxamide]
Ki [2]: 55.2 nM

COc1ccncc1-c1cccc2c(N)c(C(=O)NCCCO)c(=O)[nH]c12 [Example 66, 4-Amino-N-(3-hydroxypropyl)-8-(4-methoxy-3-pyridyl)-2-oxo-1H-quinoline-3-carboxamide]
Ki [2]: 18.6 nM

Nc1c(C(=O)NC2CC2)c(=O)[nH]c2c(-c3cnccc3OC(F)F)cccc12 [Example 70, 4-Amino-N-cyclopropyl-8-[4-(difluoromethoxy)-3-pyridyl]-2-oxo-1H-quinoline-3-carboxamide]
Ki [2, 3]: > 500 nM

COCCNC(=O)c1c(N)c2cccc(-c3cnccc3OC(F)F)c2[nH]c1=O [Example 71, 4-Amino-8-[4-(difluoromethoxy)-3-pyridyl]-N-(2-methoxyethyl)-2-oxo-1H-quinoline-3-carboxamide]
Ki [2, 3]: > 500 nM

Cc1nn(C)cc1-c1cccc2c(N)c(C(=O)NCC3COC3)c(=O)[nH]c12 [Example 72, 4-Amino-8-(1,3-dimethyl-1H-pyrazol-4-yl)-N-(oxetan-3-ylmethyl)-2-oxo-1,2-dihydroquinoline-3-carboxamide]
Ki [2, 3]: > 500 nM

Cc1nn(C)cc1-c1cccc2c(N)c(C(=O)NCCC#N)c(=O)[nH]c12 [Example 74, 4-Amino-N-(2-cyanoethyl)-8-(1,3-dimethylpyrazol-4-yl)-2-oxo-1H-quinoline-3-carboxamide]
Ki [2, 3]: > 500 nM

Cc1nn(C)cc1-c1cccc2c(N)c(C(=O)NCCCN(C)C)c(=O)[nH]c12 [Example 75, 4-Amino-N-[3-(dimethylamino)propyl]-8-(1,3-dimethylpyrazol-4-yl)-2-oxo-1H-quinoline-3-carboxamide]
Ki [2, 3]: 171 nM

CCCNC(=O)c1c(N)c2cccc(-c3cnccc3OC)c2n(C)c1=O [Example 77, 4-Amino-8-(4-methoxy-3-pyridyl)-1-methyl-2-oxo-N-propyl-quinoline-3-carboxamide]
Ki [2]: 2.77 nM

CCCNC(=O)c1c(N)c2ccnc(-c3cnccc3OC)c2[nH]c1=O [Example 84, 4-Amino-8-(4-methoxypyridin-3-yl)-2-oxo-N-propyl-1,2-dihydro-1,7-naphthyridine-3-carboxamide]
Ki [2]: 75.5 nM
